These results are taken from ChEMBL document CHEMBL3526130, “An evaluation of using rat-derived single-dose neuropharmacokinetic parameters to project accurately large animal unbound brain drug concentrations” (Drug Metab Dispos, 2012).

In general, AUC(0-inf) refers to the area under the concentration-time curve extrapolated to infinity. As a reminder, the AUC(0-t) is exposure summed from dosing to a finite time, without extrapolation to infinity. A lower AUC(0-t) goes with less exposure.

Common to all, as to type: ADME, organism-based
The nature of series [1]: AUC(0 to infinity) in Sprague-Dawley rat plasma at 2 mg/kg, sc by LC-MS/MS analysis. Also noted: time infinity, dose 2 mg/kg, route subcutaneous.
A further series deals with Nucleic Acid. The series can be described thus: Ratio of drug level in cerebrospinal fluid to unbound plasma concentration in Sprague-Dawley rat at 2 mg/kg, sc by LC-MS/MS analysis. Also noted: dose 2 mg/kg, route subcutaneous. The following applies: in vivo.
Series [2] can be described thus: Ratio of unbound drug level in brain to plasma in Sprague-Dawley rat at 2 mg/kg, sc by LC-MS/MS analysis. Also noted: dose 2 mg/kg, route subcutaneous.
Series [3] can be described thus: AUC(0 to 2 hrs) in Sprague-Dawley rat cerebrospinal fluid at 2 mg/kg, sc by LC-MS/MS analysis. Details: time < 2 hr, dose 2 mg/kg, route subcutaneous.
Series [4] is described as follows: AUC(0 to 2 hrs) in Sprague-Dawley rat plasma at 2 mg/kg, sc by LC-MS/MS analysis. Details: time < 2 hr, dose 2 mg/kg, route subcutaneous.
Series [5] in a line: AUC(0 to infinity) in Sprague-Dawley rat brain at 2 mg/kg, sc by LC-MS/MS analysis. Also noted: dose 2 mg/kg, route subcutaneous, time infinity.
Series [6] is described as follows: AUC(0 to infinity) in Sprague-Dawley rat cerebrospinal fluid at 2 mg/kg, sc by LC-MS/MS analysis. Details: time infinity, dose 2 mg/kg, route subcutaneous.
Series [7] in a line: AUC(0 to 2 hrs) in Sprague-Dawley rat brain at 2 mg/kg, sc by LC-MS/MS analysis. Also noted: time < 2 hr, dose 2 mg/kg, route subcutaneous.
The nature of series [8]: Ratio of drug level in brain to plasma in Sprague-Dawley rat at 2 mg/kg, sc by LC-MS/MS analysis. Details: dose 2 mg/kg, route subcutaneous. The following applies: read-out: BPR.
Series [9] in a line: Ratio of unbound brain concentration to drug level in cerebrospinal fluid in Sprague-Dawley rat at 2 mg/kg, sc by LC-MS/MS analysis. The following applies: in vivo. Details: dose 2 mg/kg, route subcutaneous.

As to `Clc1ccc2c(c1)N=C(N1CCNCC1)c1ccccc1N2` [N-DESMETHYLCLOZAPINE], the AUC(0-inf) in [1] is 0.57 µg·h/mL; in series [5] it was 0.699 µg·h/mL; in [6] it was 0.00891 µg·h/mL. For the same compound, the Ratio with Nucleic Acid came to 0.22; in series [9], 0.26. The Kp uu in series [2] was 0.06. The results for the AUC(0-t) at 2 h in [3], in [4] and in [7] were 0.0048 µg·h/mL, 0.346 µg·h/mL and 0.221 µg·h/mL, respectively. In addition, the Kp in series [8] came to 0.64.
